Common to all, as to test: KINOMEscan (ScanMAX) kinase profiling
Holding throughout (assay type): binding

The target of experiment [1] is T1, panel of 468 kinases (Homo sapiens, UniProt P00533, DEL752-759).
T1 construct: purchased KINOMEscan (ScanMAX) service
Particulars: EGFR(S752-I759del); 1 μM; read-out: % control.

Experiment [2] addresses T2, panel of 468 kinases (Homo sapiens, UniProt Q13555).
T2 construct: purchased KINOMEscan (ScanMAX) service
Particulars: CAMK2G; 1 μM; read-out: % control.

For experiment [3], the target named is T3, panel of 468 kinases (Homo sapiens, UniProt P50613).
T3 construct: purchased KINOMEscan (ScanMAX) service
Particulars: CDK7; 1 μM; read-out: % control.

Experiment [4] addresses T4, panel of 468 kinases (Homo sapiens, UniProt Q9Y616).
T4 construct: purchased KINOMEscan (ScanMAX) service
T4 sequence (Q9Y616 1-596): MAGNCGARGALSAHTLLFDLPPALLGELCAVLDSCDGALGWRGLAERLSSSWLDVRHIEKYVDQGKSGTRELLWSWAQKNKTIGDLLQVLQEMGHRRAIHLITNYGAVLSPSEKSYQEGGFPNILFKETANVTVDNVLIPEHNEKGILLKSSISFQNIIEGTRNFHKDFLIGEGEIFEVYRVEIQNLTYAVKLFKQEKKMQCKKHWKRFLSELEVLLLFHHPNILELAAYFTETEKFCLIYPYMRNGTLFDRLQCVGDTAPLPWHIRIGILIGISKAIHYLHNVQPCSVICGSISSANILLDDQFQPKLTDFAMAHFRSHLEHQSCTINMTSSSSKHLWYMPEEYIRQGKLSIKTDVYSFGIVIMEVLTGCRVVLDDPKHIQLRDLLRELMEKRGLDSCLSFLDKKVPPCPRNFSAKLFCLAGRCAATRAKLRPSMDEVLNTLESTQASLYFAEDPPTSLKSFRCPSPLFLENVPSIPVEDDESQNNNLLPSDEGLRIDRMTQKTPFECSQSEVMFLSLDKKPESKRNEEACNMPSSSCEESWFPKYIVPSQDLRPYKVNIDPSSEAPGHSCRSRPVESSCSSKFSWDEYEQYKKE
Particulars: IRAK3; 1 μM; read-out: % control.

Experiment [5] concerns the target T5, panel of 468 kinases (Homo sapiens, UniProt O75116).
T5 construct: purchased KINOMEscan (ScanMAX) service
Particulars: ROCK2; 1 μM; read-out: % control.

Experiment [6] has as its target T6, panel of 468 kinases (Homo sapiens, UniProt Q13546).
T6 construct: purchased KINOMEscan (ScanMAX) service
T6 sequence (Q13546 1-671): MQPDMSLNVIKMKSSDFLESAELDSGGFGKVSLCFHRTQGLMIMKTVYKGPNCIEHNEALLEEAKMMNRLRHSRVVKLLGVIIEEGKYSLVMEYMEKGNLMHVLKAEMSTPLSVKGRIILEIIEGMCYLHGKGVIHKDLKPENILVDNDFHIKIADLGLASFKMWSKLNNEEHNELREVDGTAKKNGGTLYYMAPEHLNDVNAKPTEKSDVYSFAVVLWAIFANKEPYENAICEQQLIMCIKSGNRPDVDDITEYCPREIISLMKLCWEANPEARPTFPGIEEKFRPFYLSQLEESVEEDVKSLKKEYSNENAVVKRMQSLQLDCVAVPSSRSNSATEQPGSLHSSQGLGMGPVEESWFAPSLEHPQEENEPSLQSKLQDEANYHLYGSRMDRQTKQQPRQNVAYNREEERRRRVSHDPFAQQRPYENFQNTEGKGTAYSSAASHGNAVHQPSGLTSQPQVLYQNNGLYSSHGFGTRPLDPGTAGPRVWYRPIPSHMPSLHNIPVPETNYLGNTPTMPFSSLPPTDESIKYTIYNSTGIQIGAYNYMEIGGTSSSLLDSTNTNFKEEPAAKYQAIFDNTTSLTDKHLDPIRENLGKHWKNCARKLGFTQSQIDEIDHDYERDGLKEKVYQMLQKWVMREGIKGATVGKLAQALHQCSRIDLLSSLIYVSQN
Particulars: RIPK1; 1 μM; read-out: % control.

The target of experiment [7] is T7, panel of 468 kinases (Homo sapiens, UniProt Q9NQU5).
T7 construct: purchased KINOMEscan (ScanMAX) service
Particulars: PAK6; 1 μM; read-out: % control.

In experiment [8] the target is T8, panel of 468 kinases (Homo sapiens, UniProt O15075).
T8 construct: purchased KINOMEscan (ScanMAX) service
Particulars: DCAMKL1; 1 μM; read-out: % control.

Experiment [9] addresses T9, panel of 468 kinases (Homo sapiens, UniProt O43293).
T9 construct: purchased KINOMEscan (ScanMAX) service
Particulars: DAPK3; 1 μM; read-out: % control.

Experiment [10] addresses T10, panel of 468 kinases (Homo sapiens, UniProt P06213).
T10 construct: purchased KINOMEscan (ScanMAX) service
Particulars: INSR; 1 μM; read-out: % control.

Experiment [11] has as its target T11, panel of 468 kinases (Homo sapiens, UniProt Q13188).
T11 construct: purchased KINOMEscan (ScanMAX) service
T11 sequence (Q13188 1-491): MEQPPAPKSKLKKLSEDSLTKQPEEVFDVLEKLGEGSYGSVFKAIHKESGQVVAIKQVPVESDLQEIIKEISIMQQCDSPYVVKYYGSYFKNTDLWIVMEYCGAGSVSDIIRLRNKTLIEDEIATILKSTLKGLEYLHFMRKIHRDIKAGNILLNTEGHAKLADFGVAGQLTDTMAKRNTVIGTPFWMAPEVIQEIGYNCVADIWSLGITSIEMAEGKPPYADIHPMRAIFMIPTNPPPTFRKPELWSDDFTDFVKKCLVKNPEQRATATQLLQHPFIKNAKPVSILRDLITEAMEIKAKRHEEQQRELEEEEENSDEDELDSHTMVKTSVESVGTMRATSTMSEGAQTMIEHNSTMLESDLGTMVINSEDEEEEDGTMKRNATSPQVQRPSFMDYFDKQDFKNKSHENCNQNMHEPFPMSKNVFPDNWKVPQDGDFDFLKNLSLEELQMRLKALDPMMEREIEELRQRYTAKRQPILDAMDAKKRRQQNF
Particulars: MST2; 1 μM; read-out: % control.

In experiment [12] the target is T12, panel of 468 kinases (Homo sapiens, UniProt O00506).
T12 construct: purchased KINOMEscan (ScanMAX) service
Particulars: YSK1; 1 μM; read-out: % control.

The structures appear in SMILES notation.

T3 sequence (P50613 whole entry): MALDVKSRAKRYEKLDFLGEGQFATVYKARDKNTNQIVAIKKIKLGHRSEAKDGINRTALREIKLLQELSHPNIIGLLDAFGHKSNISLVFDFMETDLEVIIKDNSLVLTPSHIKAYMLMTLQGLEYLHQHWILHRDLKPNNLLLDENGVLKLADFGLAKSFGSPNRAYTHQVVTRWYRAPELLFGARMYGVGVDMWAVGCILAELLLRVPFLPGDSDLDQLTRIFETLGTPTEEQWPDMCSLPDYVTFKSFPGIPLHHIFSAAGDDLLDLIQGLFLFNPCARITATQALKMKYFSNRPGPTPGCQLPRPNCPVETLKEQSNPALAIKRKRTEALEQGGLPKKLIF
T8 sequence (O15075 whole entry): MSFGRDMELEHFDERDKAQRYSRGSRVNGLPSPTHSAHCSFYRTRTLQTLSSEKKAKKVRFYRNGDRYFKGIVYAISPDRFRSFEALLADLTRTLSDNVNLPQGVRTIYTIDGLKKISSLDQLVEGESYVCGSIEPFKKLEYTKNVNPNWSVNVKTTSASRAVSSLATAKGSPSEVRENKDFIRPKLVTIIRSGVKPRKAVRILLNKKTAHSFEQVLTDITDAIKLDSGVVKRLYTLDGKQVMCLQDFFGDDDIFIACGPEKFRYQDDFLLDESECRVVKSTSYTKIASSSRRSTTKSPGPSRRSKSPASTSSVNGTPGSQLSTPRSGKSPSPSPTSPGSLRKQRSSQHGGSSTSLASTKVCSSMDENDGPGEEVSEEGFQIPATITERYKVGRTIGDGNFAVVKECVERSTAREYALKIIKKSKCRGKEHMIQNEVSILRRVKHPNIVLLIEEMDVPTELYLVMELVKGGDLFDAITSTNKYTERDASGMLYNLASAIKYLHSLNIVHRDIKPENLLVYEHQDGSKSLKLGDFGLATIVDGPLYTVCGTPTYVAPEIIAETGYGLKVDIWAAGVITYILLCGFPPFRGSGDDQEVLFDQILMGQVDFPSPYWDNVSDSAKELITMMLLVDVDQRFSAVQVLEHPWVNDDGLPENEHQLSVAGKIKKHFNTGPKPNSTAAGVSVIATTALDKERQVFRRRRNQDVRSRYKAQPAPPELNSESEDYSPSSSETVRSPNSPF
T9 sequence (O43293 whole entry): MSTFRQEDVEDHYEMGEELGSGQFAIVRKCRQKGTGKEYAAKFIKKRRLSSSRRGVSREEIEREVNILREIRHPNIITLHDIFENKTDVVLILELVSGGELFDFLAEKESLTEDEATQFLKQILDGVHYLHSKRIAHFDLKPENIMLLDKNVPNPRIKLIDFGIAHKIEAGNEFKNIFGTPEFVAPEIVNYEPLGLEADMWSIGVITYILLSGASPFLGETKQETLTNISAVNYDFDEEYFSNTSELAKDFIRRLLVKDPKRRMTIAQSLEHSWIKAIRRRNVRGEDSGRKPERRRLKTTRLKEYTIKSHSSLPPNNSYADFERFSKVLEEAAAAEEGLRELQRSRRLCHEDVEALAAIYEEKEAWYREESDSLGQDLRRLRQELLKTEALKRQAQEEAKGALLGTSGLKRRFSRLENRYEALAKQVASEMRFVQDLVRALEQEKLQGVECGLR
T10 sequence (P06213 28-1382): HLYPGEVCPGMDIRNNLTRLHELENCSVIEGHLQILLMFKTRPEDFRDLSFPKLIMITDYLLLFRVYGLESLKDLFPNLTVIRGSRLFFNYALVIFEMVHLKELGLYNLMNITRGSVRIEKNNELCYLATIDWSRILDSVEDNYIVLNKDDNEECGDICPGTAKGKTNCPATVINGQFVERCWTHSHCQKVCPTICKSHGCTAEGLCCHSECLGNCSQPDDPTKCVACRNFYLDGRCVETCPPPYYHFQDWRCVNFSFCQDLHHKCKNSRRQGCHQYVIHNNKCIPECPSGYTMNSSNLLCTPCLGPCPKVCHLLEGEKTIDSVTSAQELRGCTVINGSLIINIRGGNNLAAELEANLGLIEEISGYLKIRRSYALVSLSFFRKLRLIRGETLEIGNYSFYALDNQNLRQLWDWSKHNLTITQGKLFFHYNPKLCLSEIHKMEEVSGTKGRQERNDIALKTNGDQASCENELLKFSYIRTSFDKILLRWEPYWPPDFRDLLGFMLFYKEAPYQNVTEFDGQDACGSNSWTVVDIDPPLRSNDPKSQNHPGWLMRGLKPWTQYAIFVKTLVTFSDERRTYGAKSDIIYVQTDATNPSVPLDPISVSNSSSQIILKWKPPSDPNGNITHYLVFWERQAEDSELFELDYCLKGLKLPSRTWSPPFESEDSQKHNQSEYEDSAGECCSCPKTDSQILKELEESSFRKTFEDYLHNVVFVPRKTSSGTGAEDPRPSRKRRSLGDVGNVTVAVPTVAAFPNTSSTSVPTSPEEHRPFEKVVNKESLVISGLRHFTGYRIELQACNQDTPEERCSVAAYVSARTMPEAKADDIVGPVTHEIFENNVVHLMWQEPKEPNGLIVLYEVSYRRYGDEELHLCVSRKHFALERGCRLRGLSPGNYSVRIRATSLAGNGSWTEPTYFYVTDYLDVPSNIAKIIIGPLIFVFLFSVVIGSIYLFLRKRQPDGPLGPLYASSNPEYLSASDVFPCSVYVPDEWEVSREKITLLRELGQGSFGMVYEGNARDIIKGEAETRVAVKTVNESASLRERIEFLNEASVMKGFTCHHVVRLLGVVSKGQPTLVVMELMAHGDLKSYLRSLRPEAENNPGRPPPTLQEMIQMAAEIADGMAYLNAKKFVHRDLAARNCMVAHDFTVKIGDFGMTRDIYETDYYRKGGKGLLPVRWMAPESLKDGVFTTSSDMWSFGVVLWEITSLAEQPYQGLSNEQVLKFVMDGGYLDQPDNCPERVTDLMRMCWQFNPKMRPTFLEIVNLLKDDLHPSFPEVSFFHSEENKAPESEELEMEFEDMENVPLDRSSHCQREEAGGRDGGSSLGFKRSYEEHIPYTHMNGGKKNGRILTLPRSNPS
T5 sequence (O75116 whole entry): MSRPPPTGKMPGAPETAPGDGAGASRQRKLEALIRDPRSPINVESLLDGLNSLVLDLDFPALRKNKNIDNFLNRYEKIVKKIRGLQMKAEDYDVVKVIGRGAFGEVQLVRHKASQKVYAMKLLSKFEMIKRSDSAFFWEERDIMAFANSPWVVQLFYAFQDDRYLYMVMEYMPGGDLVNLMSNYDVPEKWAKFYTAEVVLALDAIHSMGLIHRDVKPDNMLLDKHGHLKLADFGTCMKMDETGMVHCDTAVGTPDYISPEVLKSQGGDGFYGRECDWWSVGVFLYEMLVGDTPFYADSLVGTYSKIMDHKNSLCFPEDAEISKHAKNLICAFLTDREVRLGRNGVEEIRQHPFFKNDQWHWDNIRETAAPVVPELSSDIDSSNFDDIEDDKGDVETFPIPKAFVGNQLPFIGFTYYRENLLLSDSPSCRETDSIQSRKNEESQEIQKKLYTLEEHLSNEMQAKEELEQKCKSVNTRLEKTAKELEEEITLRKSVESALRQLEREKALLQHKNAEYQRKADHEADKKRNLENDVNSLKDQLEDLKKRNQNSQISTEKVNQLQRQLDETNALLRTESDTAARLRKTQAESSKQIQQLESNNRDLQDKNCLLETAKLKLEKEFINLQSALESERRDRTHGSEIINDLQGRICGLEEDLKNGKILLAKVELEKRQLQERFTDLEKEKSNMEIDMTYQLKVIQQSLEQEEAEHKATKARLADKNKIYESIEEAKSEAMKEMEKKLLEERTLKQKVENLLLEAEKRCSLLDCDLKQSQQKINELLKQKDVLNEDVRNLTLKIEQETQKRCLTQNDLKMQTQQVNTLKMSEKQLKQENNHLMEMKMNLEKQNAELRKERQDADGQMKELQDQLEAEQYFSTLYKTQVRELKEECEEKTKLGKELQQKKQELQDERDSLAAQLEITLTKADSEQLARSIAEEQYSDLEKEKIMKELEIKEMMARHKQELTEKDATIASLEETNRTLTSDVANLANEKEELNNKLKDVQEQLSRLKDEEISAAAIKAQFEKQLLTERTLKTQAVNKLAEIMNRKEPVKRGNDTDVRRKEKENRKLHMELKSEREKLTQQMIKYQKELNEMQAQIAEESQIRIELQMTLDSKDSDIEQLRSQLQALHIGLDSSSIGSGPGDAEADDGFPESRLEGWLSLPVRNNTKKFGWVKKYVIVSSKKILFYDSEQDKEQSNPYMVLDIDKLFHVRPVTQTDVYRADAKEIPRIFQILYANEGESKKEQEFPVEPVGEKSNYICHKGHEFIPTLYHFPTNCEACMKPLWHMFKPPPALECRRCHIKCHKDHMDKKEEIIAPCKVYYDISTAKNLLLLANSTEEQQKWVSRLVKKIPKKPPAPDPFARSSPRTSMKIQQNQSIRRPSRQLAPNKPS
T2 sequence (Q13555 whole entry): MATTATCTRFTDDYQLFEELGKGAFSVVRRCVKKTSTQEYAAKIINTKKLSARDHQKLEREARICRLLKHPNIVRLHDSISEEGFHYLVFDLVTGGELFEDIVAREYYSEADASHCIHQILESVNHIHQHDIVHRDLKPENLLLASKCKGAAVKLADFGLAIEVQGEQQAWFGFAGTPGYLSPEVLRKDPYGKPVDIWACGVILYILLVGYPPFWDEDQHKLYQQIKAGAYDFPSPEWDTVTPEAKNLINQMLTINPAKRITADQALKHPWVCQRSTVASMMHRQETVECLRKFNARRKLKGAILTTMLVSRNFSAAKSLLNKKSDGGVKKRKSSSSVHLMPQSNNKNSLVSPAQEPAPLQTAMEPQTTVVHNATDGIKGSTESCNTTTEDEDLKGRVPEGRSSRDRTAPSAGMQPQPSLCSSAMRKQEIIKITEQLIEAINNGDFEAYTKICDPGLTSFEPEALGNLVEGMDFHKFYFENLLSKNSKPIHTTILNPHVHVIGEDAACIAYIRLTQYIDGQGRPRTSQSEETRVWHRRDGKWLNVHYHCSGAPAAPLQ

With `CNc1nc(Nc2ccc(S(=O)(=O)N3CCC(N4CCOCC4)CC3)cc2OC)nc2[nH]cc(Cl)c12` [Compound 12, 5-chloro-N2-(2-methoxy-4-((4-morpholinopiperidin-1-yl)sulfonyl)phenyl)-N4-methyl-7H-pyrrolo[2,3-d]pyrimidine-2,4-diamine], the remaining binding at 1 µM came to 100% at panel of 468 kinases [1]; 100% at panel of 468 kinases [2]; 98% at panel of 468 kinases [3]; 100% at panel of 468 kinases [4]; 86% on panel of 468 kinases [5]; 92% at panel of 468 kinases [6]. For the same molecule, the remaining binding at 1 µM on panel of 468 kinases [7] is 100%; at panel of 468 kinases [8], 94%; at panel of 468 kinases [9], 35%; at panel of 468 kinases [10], 50%; at panel of 468 kinases [11], 100%; on panel of 468 kinases [12], 100%.
Turning to `CNc1nc(Nc2ccc(C(=O)N3CCC(N4CCOCC4)CC3)c3c2OCO3)nc2[nH]cc(Cl)c12` [Compound 75, (7-((5-chloro-4-(methylamino)-7H-pyrrolo[2,3-d]pyrimidin-2-yl)amino)benzo[d][1,3]dioxol-4-yl)(4-morpholinopiperidin-1-yl)methanone], the remaining binding at 1 µM at panel of 468 kinases [1] is 94%; on panel of 468 kinases [2] it was 100%; at panel of 468 kinases [3] it was 21%; on panel of 468 kinases [4], 93%; at panel of 468 kinases [5], 35%; on panel of 468 kinases [6], 89%. The remaining binding at 1 µM turned out to be 100% at panel of 468 kinases [7]; 74% on panel of 468 kinases [8]; 16% on panel of 468 kinases [9]; 24% at panel of 468 kinases [10]; 45% at panel of 468 kinases [11]; 100% at panel of 468 kinases [12].
Consider `CNc1nc(Nc2ccc(P3(=O)CCN(C4CCOCC4)CC3)cc2OC)nc2[nH]cc(Cl)c12` [Compound 77, 4-(4-((5-chloro-4-(methylamino)-7H-pyrrolo[2,3-d]pyrimidin-2-yl)amino)-3-methoxyphenyl)-1-(tetrahydro-2H-pyran-4-yl)-1,4-azaphosphinane 4-oxide], for which the remaining binding at 1 µM turned out to be 100% at panel of 468 kinases [1]; 97% at panel of 468 kinases [2]; 86% at panel of 468 kinases [3]; 94% on panel of 468 kinases [4]; 96% at panel of 468 kinases [5]; 88% at panel of 468 kinases [6]. Further, the remaining binding at 1 µM on panel of 468 kinases [7] is 95%; at panel of 468 kinases [8] it was 74%; on panel of 468 kinases [9] it was 9.9%; at panel of 468 kinases [10], 18%; on panel of 468 kinases [11], 100%; at panel of 468 kinases [12] it was 100%.
